This note sets out measurements from patent US7662810B2, “2-arylmethylazetidine carbapenem derivatives and preparation thereof” (Korea Research Institute of Chemical Technology, priority 2004, dated 2010).

The target of series [1] is T1, Dihydropeptidase-1 (DHP-1) (Sus scrofa, UniProt P22412).
T1 sequence (P22412 17-384): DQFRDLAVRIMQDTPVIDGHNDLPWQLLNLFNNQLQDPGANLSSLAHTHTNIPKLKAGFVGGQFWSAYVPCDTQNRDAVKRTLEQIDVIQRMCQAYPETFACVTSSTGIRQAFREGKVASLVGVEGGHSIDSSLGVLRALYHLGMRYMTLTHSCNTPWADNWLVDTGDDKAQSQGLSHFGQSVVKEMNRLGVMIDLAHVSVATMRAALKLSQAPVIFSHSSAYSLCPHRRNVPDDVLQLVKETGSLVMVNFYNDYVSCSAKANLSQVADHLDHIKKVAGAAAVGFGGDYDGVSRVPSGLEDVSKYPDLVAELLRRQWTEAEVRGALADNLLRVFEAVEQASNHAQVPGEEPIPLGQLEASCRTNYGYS

Series [2] has as its system Staphylococcus epidermidis 178. As to the kind of experiment: Measurement of Minimum Inhibitory Concentration (MIC), QRS. Format: cell-based. The settings on record: QRS, Staphylococcus epidermidis 178. The essentials: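 Plates: Müller-Hinton agar, compound 0.002–100 μg/ml final, doubling series. Inoculum ~10^4 CFU/spot from 18 h Fleisch broth culture. Incubation 37 °C, 18 h. Readout MIC; meropenem and vancomycin as standards.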

Series [3] in a line: Acute Toxicity Test. As for the experimental part: The acute toxicity of the compound of Example 14 was tested using several groups of ICR mice each of 10 mice.
Series [4] concerns Staphylococcus pyogenes 77A. Description: Determination of Protection Dose (PD50) in Infected Animal Model. It is filed as in vivo. As to conditions: mice infected intraperitoneally with Staphylococcus pyogenes 77A; compound injected intraperitoneally 1 hour after the infection. As for the experimental part:
(§1) In order to get the lethal dose (LD100) of bacteria, […] pyogenes 77A and Escherichia coli 078 were each diluted by 10^2˜10^9 times. […] For a main experiment, 3 to 4 week-old SPF ICR male mice were divided into 4 groups each of 8 to 10 mice, and fasted for 24 hours before a test. The solutions of […] pyogenes 77A and Escherichia coli 078 were concentrated to a level that was 2 to 10 times of LD100, and the concentrated […] pyogenes 77A solution mixed with 10% horse serum and the concentrated Escherichia coli 078 solution mixed with 5% hog gastric mucin were each injected intraperitoneally into the mice of each group to induce whole body infection.
(§2) The serially diluted solutions of the compound of Example 14 or meropenem (5 different concentrations) were injected intraperitoneally into the infected mice 1 hour after the infection. All of the mice in the control group injected with physiological salt solution died within 48 hours. The number of survived mouse in each group injected with antibacterial material, were counted to determine PD50, and the 95% confidence interval thereof was calculated employing Probit method.

In series [5] the test system is Escherichia coli 078. Described as above. Format: in vivo. As to conditions: mice infected intraperitoneally with Escherichia coli 078; compound injected intraperitoneally 1 hour after the infection. As to the method:
as §1, §2

For series [6], the target named is T1, Dihydropeptidase-1 (DHP-1). Description: Sensitivity Assay Against Dihydropeptidase-1 (DHP-1). The settings on record: pig, DHP-1 enzyme extracted from hog kidney.

≈ marks a conversion by molar mass, not a printed value. Where two headings read alike, the source gives them in different places.

By MIC is commonly meant the lowest concentration found to suppress growth. For `COc1ccc(CN2CC(SC3=C(C(=O)[O-])N4C(=O)[C@H]([C@@H](C)O)[C@H]4[C@H]3C)C2)cc1.[K+]` [Exam. 14, Potassium(1R,5S,6S)-2-[1-(4-methoxybenzyl)-azetidine-3-yl-thio]-6-[(1R)-1-hydroxylethyl]-1-methylcarbapen-2-em-3-carboxylate], the “T1/2 (time when the concentration of the medicament become the half)” value in series [1] was found to be 19.88. The MIC in series [2] was determined as 0.391 µg/mL. The death entry in series [3] (ICR mice, 500, 1,000 and 2,000 mg/kg intraperitoneally, 7 days) is on record as “no mice died”. Moreover, the LD50 result in series [3] (ICR mice, intraperitoneally injected, observed for 7 days) was “higher than 2,000 mg/kg”. The PD50 in series [4] is on record as 3.05 mg/kg; in series [5], 1.44 mg/kg.

The half-life is how long it takes for the measured level to halve. Low values mean rapid decline, high ones slow decline. Take `C[C@@H](O)[C@H]1C(=O)N2C(C(=O)O)=C(S[C@@H]3CN[C@H](C(=O)N(C)C)C3)[C@H](C)[C@H]12` [Meropenem, reference compound]: the minimal inhibitory concentration (MIC) in series [2] (read-out: MIC) stood at 0.781 µg/mL (≈ 2.04 µM). Besides, in series [6], the half-life at 500 μg/ml is 18.3 h. Moreover, the figures for the PD50 in series [4] and in series [5] were 9.13 mg/kg and 3.31 mg/kg, respectively.
